These results are taken from US7235537B2, “N3 alkylated benzimidazole derivatives as MEK inhibitors” (Array BioPharma, Inc., priority 2002, dated 2007).

SMILES strings stand for the structures.

The experiment concerns N-terminal 6 His-tagged, constitutively active MEK1 (2-393). Briefly: MEK1 kinase assay (incorporation of γ-33P-phosphate from γ-33P-ATP onto ERK2). In kind it is biochemical. Conditions: 5 nM MEK1, 1 μM ERK2, 10 μM ATP, 45 minutes at ambient temperature, 1% DMSO. As for the experimental part: The activity of the compounds of the present invention may be determined by the following procedure. N-terminal 6 His-tagged, constitutively active MEK1 (2-393) is expressed in E. coli and protein is purified by conventional methods (Ahn et al., Science 1994, 265, 966-970). The activity of MEK1 is assessed by measuring the incorporation of γ-^33P-phosphate from γ-^33P-ATP onto N-terminal His tagged ERK2, which is expressed in E. coli and is purified by conventional methods, in the presence of MEK1. The assay is carried out in 96-well polypropylene plate. The incubation mixture (100 μL) comprises of 25 mM Hepes, pH 7.4, 10 mM MgCl2, 5 mM β-glycerolphosphate, 100 μM Na-orthovanadate, 5 mM DTT, 5 nM MEK1, and 1 μM ERK2. Inhibitors are suspended in DMSO, and all reactions, including controls are performed at a final concentration of 1% DMSO. Reactions are initiated by the addition of 10 μM ATP (with 0.5 μCi γ-^33P-ATP/well) and incubated at ambient temperature for 45 minutes. Equal volume of 25% TCA is added to stop the reaction and precipitate the proteins. Precipitated proteins are trapped onto glass fiber B filterplates, and excess labeled ATP washed off using a Tomtec MACH III harvester. Plates are allowed to air-dry prior to adding 30 μL/well of Packard Microscint 20, and plates are counted using a Packard TopCount.
For the molecule `O=C(NOCCO)c1cc2[nH]cnc2c(F)c1Nc1ccc(Br)cc1Cl` [Compound 8n], the result was active.
Take `O=C(NOCC1CC1)c1cc2[nH]cnc2c(F)c1Nc1ccc(Br)cc1Cl` [Compound 11b, 6-(4-Bromo-2-chloro-phenylamino)-7-fluoro-3H-benzoimidazole-5-carboxylic acid cyclopropylmethoxy-amide]: the outcome was active.
Take `Cc1cc(Br)ccc1Nc1c(C(=O)NOCC2CC2)cc2c(ncn2C)c1F` [Compound 11c]: the result was active.
As for `O=C(NOCCO)c1cc2c(ncn2CC2CCCCO2)c(F)c1Nc1ccc(Br)cc1Cl` (stereo not drawn) [Compound 11p, 6-(4-Bromo-2-chloro-phenylamino)-7-fluoro-3-(tetrahydro-pyran-2-ylmethyl)-3H-benzoimidazole-5-carboxylic acid (2-hydroxy-ethoxy)-amide], the result was active.
With `Cc1cc(Br)ccc1Nc1c(C(=O)NOCC2CC2)cc2c(ncn2CCCCN2CCCCC2)c1F` [Compound 18i], the outcome was active.
In the case of `CCCCn1cnc2c(F)c(Nc3ccc(Br)cc3Cl)c(C(=O)NOCC3CC3)cc21` [Compound 29bb], the result was active.
As to `Cn1cnc2c(F)c(Nc3ccc(Br)cc3Cl)c(C(=O)NOCCO)cc21` [Compound 29c, 6-(4-Bromo-2-chloro-phenylamino)-7-fluoro-3-methyl-3H-benzoimidazole-5-carboxylic acid (2-hydroxy-ethoxy)-amide], the result was active.
Consider `Cn1cnc2c(F)c(Nc3ccc(Br)cc3Cl)c(C(=O)NOC(C)(C)CO)cc21` [Compound 29i], for which the outcome was active.
Consider `Cn1cnc2c(F)c(Nc3ccc(Br)cc3F)c(C(=O)NOCCO)cc21` [Compound 29lll], for which the result was active.
For `Cn1cnc2c(F)c(Nc3ccc(Br)cc3F)c(C(=O)NOC(C)(C)CO)cc21` [Compound 29mmm], the result was active.
For `Cc1nc(Cn2cnc3c(F)c(Nc4ccc(Br)cc4Cl)c(C(=O)NOCCO)cc32)cs1` [Compound 29s], the outcome was active.
Turning to `O=C(NOCCO)c1cc2c(ncn2Cc2ccc(Cl)cc2)c(F)c1Nc1ccc(Br)cc1Cl` [Compound 29t], the outcome was active.
